{
  "source": "patent US20230279355A1",
  "about": "“METHOD FOR THE IN VITRO OR EX VIVO AMPLIFICATION OF STEM CELLS OF BROWN OR BEIGE ADIPOCYTES” (CENTRE NATIONAL DE LA RECHERCHE SCIENTIFIQUE, priority 2020, published 2023)",
  "key": {"hASCs": {"system": "hASCs", "assay": "differentiation of hASCs into adipocytes (PLIN1, UCP1 expression)", "type": "cell-based, human", "experimental": "In order to determine the differentiation medium, different media were tested. These media were enriched with adipogenic factors then tested for the differentiation of the hASCs. […] It should also be noted that the medium n° 5 is an option to the EGM+ which has not been pursued further."}, "[1]": {"system": "hECs (endothelial cells of human adipose tissue)", "description": "In order to determine the proliferation medium, five mediums, which are generally marketed for the proliferation of human endothelial cells, were tested."}, "cells in suspension": {"system": "cells in suspension", "settings": "reported; cited from earlier work"}, "UCP1": {"system": "UCP1", "settings": "described in the literature; cited from earlier work"}},
  "data": [
    {"smiles": "NC(=O)c1ccc(-c2nc(-c3ccc4c(c3)OCO4)c(-c3ccccn3)[nH]2)cc1", "note": "[SB431542]", "values": [
      {"measurement": "expression of UCP1", "setting": "hASCs; addition of SB431542 and maintenance of Rosiglitazone", "value": "allows the expression of UCP1"},
      {"measurement": "differentiation into adipocytes (PLIN1)", "setting": "hASCs; dexamethasone and IBMX removed after the first three days, SB431542 added", "value": "allows restoring the differentiation"},
      {"measurement": "viability of hECs", "setting": "[1]", "value": "no consequence upon the viability of hECs"}
    ]},
    {"smiles": "C[C@@H](N)[C@H]1CC[C@H](C(=O)Nc2ccncc2)CC1", "note": "[Y27632]", "values": [
      {"measurement": "cell viability in suspension", "setting": "cells in suspension", "value": "increasing the cell viability in suspension"}
    ]},
    {"smiles": "C[C@]12CCC(=O)C=C1CC[C@@H]1[C@@H]2[C@@H](O)C[C@@]2(C)[C@H]1CC[C@]2(O)C(=O)CO", "note": "[hydrocortisone, Hydrocortisone]", "values": [
      {"measurement": "expression of UCP1", "setting": "UCP1", "value": "able to inhibit the expression of UCP1"}
    ]}
  ]
}
